Data reported in ChEMBL document CHEMBL1201862, “PubChem BioAssay data set” (2004).
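Interpolation was linear, between the two tested concentrations surrounding the appropriate level; five concentrations were tested over 48 hours in 96-well plates. Abbreviation: GI50, concentration required for 50% inhibition of growth.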 Activity calls are given as the source filed them. No stated cut-off is given here; in the data, active = GI50 up to about 1.1 µM and inactive = higher.

Assays:
Assay in all cases: NCI-60 cell line screen, 48 h
NCI-H226 = system: NCI-H226
COLO 205 = system: COLO 205
CAKI-1 = system: CAKI-1
BT-549 = system: BT-549
MCF7 = system: MCF7
UACC-257 = system: UACC-257
SF-268 = system: SF-268
HOP-62 = system: HOP-62
SNB-19 = system: SNB-19
OVCAR-4 = system: OVCAR-4
SW-620 = system: SW-620
NCI-H460 = system: NCI-H460
786-0 = system: 786-0
HCT-116 = system: HCT-116
MOLT-4 = system: MOLT-4
OVCAR-8 = system: OVCAR-8
IGROV-1 = system: IGROV-1
NCI/ADR-RES = system: NCI/ADR-RES
U-251 = system: U-251
SR = system: SR

Row | SMILES | GI50 (NCI-H226) | GI50 (COLO 205) | GI50 (CAKI-1) | GI50 (BT-549) | GI50 (MCF7) | GI50 (UACC-257) | GI50 (SF-268) | GI50 (HOP-62) | GI50 (SNB-19) | GI50 (OVCAR-4) | GI50 (SW-620) | GI50 (NCI-H460) | GI50 (786-0) | GI50 (HCT-116) | GI50 (MOLT-4) | GI50 (OVCAR-8) | GI50 (IGROV-1) | GI50 (NCI/ADR-RES) | GI50 (U-251) | GI50 (SR)
1 | Nc1nc(N)c2nn(-c3ccc(C(=O)O)cc3)nc2n1 | > 100 µM (inactive) | > 100 µM (inactive) | > 100 µM (inactive) | > 100 µM (inactive) | > 100 µM (inactive) | > 100 µM (inactive) | > 100 µM (inactive) | > 100 µM (inactive) | > 100 µM (inactive) | > 100 µM (inactive) | > 100 µM (inactive) | > 100 µM (inactive) | > 100 µM (inactive) | > 100 µM (inactive) | > 100 µM (inactive) | > 100 µM (inactive) | > 100 µM (inactive) | > 100 µM (inactive) | > 100 µM (inactive) | 
2 | O=C1c2ccccc2/N=C(/c2cc3c(cc2Cl)Sc2nccn2S3(=O)=O)OS(=O)(=O)N1c1ccccc1 | 39.4 µM (inactive) | 19.9 µM (inactive) | 35.7 µM (inactive) | 17.8 µM (inactive) | 24.6 µM (inactive) | 64.7 µM (inactive) | 37.3 µM (inactive) | 21.7 µM (inactive) | 33.7 µM (inactive) | 21.1 µM (inactive) | 24.9 µM (inactive) | 29.8 µM (inactive) | 38.4 µM (inactive) | 15.5 µM (inactive) | 9.33 µM (inactive) | 17.4 µM (inactive) |  |  | 29.2 µM (inactive) | 10.8 µM (inactive)
3 | CN(C)c1ccc(C=c2c3ccccc3n3c2cc(-c2ccc(Cl)cc2)[n+]3C)cc1 | 0.573 µM (active) | 0.0705 µM (active) | 0.259 µM (active) | 0.201 µM (active) | 0.0953 µM (active) | 0.158 µM (active) | 0.473 µM (active) | 0.406 µM (active) | 0.268 µM (active) | 0.748 µM (active) | 0.242 µM (active) | 0.263 µM (active) | 0.267 µM (active) | 0.0653 µM (active) | 0.147 µM (active) | 0.147 µM (active) |  | 6.41 µM (inactive) | 0.0269 µM (active) | 
4 | COc1cc(/C=N/NC(=O)c2c(Cl)c(Cl)c(Cl)c(Cl)c2-c2nc3ccccc3[nH]2)ccc1O | 21.3 µM (inactive) | 22.3 µM (inactive) | 25.3 µM (inactive) | 21.1 µM (inactive) | 16.9 µM (inactive) | 29.3 µM (inactive) | 32.5 µM (inactive) | 21.6 µM (inactive) | 30.5 µM (inactive) |  | 34.4 µM (inactive) | 19.1 µM (inactive) | 28 µM (inactive) | 16.7 µM (inactive) | 18 µM (inactive) | 31.1 µM (inactive) | 14 µM (inactive) | > 100 µM (inactive) |  | 
5 | CCOc1c2ccsc2c(OCC)c2ccsc12 |  | 4.21 µM (inactive) | 4.61 µM (inactive) | > 28.8 µM (inactive) | 3.59 µM (inactive) | > 29.1 µM (inactive) | 9.82 µM (inactive) | 4.78 µM (inactive) | 4.37 µM (inactive) | > 100 µM (inactive) | 3.72 µM (inactive) | 3.58 µM (inactive) | 4.44 µM (inactive) | 4.06 µM (inactive) | 3.52 µM (inactive) | 6.24 µM (inactive) | 5.06 µM (inactive) | 7.05 µM (inactive) | 3.72 µM (inactive) | 4.32 µM (inactive)
6 | N=C(N)c1ccc2oc3ccc(C(=N)N)cc3c(=O)c2c1 | > 100 µM (inactive) | > 100 µM (inactive) | > 100 µM (inactive) | > 100 µM (inactive) | 60.4 µM (inactive) | > 100 µM (inactive) | > 100 µM (inactive) |  | > 100 µM (inactive) | > 100 µM (inactive) | > 100 µM (inactive) | > 100 µM (inactive) | > 100 µM (inactive) | > 100 µM (inactive) | > 100 µM (inactive) | > 100 µM (inactive) | > 100 µM (inactive) | > 100 µM (inactive) | > 100 µM (inactive) | 
7 | Cc1ccc(S(=O)(=O)N/N=C2\CC3CC4CCC2C4C3)cc1 (stereo not drawn) | > 100 µM (inactive) | > 100 µM (inactive) | > 100 µM (inactive) | > 100 µM (inactive) | > 100 µM (inactive) | > 100 µM (inactive) | > 100 µM (inactive) | > 100 µM (inactive) |  | > 100 µM (inactive) | > 100 µM (inactive) | > 100 µM (inactive) | > 100 µM (inactive) | > 100 µM (inactive) | > 100 µM (inactive) | > 100 µM (inactive) | > 100 µM (inactive) |  | > 100 µM (inactive) | > 100 µM (inactive)
8 | CC(=O)/C(=C/NC(=S)c1ccncc1)C(=O)Nc1ccccc1C | > 100 µM (inactive) | > 100 µM (inactive) | > 100 µM (inactive) | > 100 µM (inactive) | > 100 µM (inactive) | > 100 µM (inactive) | > 100 µM (inactive) | > 100 µM (inactive) | > 100 µM (inactive) | > 100 µM (inactive) | > 100 µM (inactive) | > 100 µM (inactive) | > 100 µM (inactive) | > 100 µM (inactive) |  | > 100 µM (inactive) | > 100 µM (inactive) | > 100 µM (inactive) | > 100 µM (inactive) | 
9 | CC(C)(O)C1CC(=O)C(C)(C2C(O)CC3(C)C4CC=C5C(CCC(O)C5(C)C)C4(C)C(=O)CC23C)O1 (stereo not drawn) | > 100 µM (inactive) | > 100 µM (inactive) | > 100 µM (inactive) | > 100 µM (inactive) | > 100 µM (inactive) | > 100 µM (inactive) | > 100 µM (inactive) | > 100 µM (inactive) | > 100 µM (inactive) | > 100 µM (inactive) | > 100 µM (inactive) | > 100 µM (inactive) | > 100 µM (inactive) | > 100 µM (inactive) | > 100 µM (inactive) | > 100 µM (inactive) | > 100 µM (inactive) |  | > 100 µM (inactive) | 
10 | O=[N+]([O-])c1cccc2nc3ccccc3c(NCCCCNc3c4ccccc4nc4cccc([N+](=O)[O-])c34)c12 | 0.144 µM (active) | 0.0199 µM (active) | 0.0261 µM (active) | 0.242 µM (active) | 0.0216 µM (active) | 0.146 µM (active) | 0.0203 µM (active) | 0.042 µM (active) | 0.0302 µM (active) | 0.0948 µM (active) | < 0.0122 µM (active) | 0.0143 µM (active) | 0.0164 µM (active) | 0.0143 µM (active) | < 0.0104 µM (active) | < 0.01 µM (active) | 0.118 µM (active) | 0.248 µM (active) | 0.0261 µM (active) | 
11 | COC(=O)C12C3C4(C(=O)OC)C1C1(C(=O)OC)C2C3(C(=O)OC)C41C(=O)N(C(C)C)C(C)C (stereo not drawn) |  | > 100 µM (inactive) | > 100 µM (inactive) | > 100 µM (inactive) | > 100 µM (inactive) | > 100 µM (inactive) | > 100 µM (inactive) | > 100 µM (inactive) | > 100 µM (inactive) | > 100 µM (inactive) | > 100 µM (inactive) | > 100 µM (inactive) | > 100 µM (inactive) | > 100 µM (inactive) | > 100 µM (inactive) | > 100 µM (inactive) | > 100 µM (inactive) | > 100 µM (inactive) | > 100 µM (inactive) | > 100 µM (inactive)
12 | CSc1ncc2c(n1)-c1ccccc1OC2NC(C)(C)C (stereo not drawn) | 31.4 µM (inactive) | > 100 µM (inactive) | 35.7 µM (inactive) | 44.9 µM (inactive) | 36.5 µM (inactive) | > 100 µM (inactive) | 87.3 µM (inactive) | > 100 µM (inactive) | > 100 µM (inactive) | > 100 µM (inactive) | > 100 µM (inactive) | > 100 µM (inactive) | > 100 µM (inactive) | > 100 µM (inactive) | 47.2 µM (inactive) | > 100 µM (inactive) |  |  | > 100 µM (inactive) | > 100 µM (inactive)
13 | CC(=O)OCC1OC(Oc2cc(C)c(O)cc2C/C=C(\C)CC/C=C(\C)CC(=O)CC(C)C)C(O)C(OC(C)=O)C1OC(C)=O (stereo not drawn) |  | 10.2 µM (inactive) | 30.3 µM (inactive) | 10.6 µM (inactive) | 12.8 µM (inactive) | 12.1 µM (inactive) | 21.2 µM (inactive) | 11.4 µM (inactive) | 7.93 µM (inactive) | 19.6 µM (inactive) | 11 µM (inactive) | 13.7 µM (inactive) | 21 µM (inactive) | 18.2 µM (inactive) | 9.23 µM (inactive) | 16.9 µM (inactive) | 29.4 µM (inactive) | 11.4 µM (inactive) | 13.6 µM (inactive) | 
14 | COc1cc(OC)c(-c2ccc(OCc3ccccc3)c3c(OC)cc(C)cc23)c2c1C(C)=N[C@H](C)C2 | 2.64 µM (inactive) | 2.28 µM (inactive) | > 12.5 µM (inactive) | 3.31 µM (inactive) |  | 2.17 µM (inactive) | 1.78 µM (inactive) | 2.26 µM (inactive) | 2.68 µM (inactive) | 2.14 µM (inactive) | 2.45 µM (inactive) | 2.1 µM (inactive) | 2.1 µM (inactive) | 2.23 µM (inactive) | 2.29 µM (inactive) | 1.96 µM (inactive) | 1.87 µM (inactive) | 2.12 µM (inactive) | 2.08 µM (inactive) | 1.16 µM (inactive)
15 | CC1(C)SC2C(NC(=O)C(C(=O)O)c3ccccc3)C(=O)N2C1C(=O)O (stereo not drawn) | > 100 µM (inactive) | > 100 µM (inactive) | > 100 µM (inactive) | > 100 µM (inactive) | > 100 µM (inactive) | > 100 µM (inactive) | > 100 µM (inactive) | > 100 µM (inactive) | > 100 µM (inactive) |  | > 100 µM (inactive) |  | > 100 µM (inactive) | > 100 µM (inactive) | > 100 µM (inactive) | > 100 µM (inactive) | > 100 µM (inactive) | > 100 µM (inactive) | > 100 µM (inactive) | 
